Results: US9522928B2, “Mannosylated compounds useful for the prevention and the treatment of infectious diseases” (UNIVERSITE DE STRASBOURG, priority 2011, dated 2016)
Entries after “also recorded” stand apart in the source; their conditions may differ. Where two headings read alike, the source gives them in different places.

What was measured:
DC-SIGN CRD = biological target: T1, DC-SIGN CRD (Homo sapiens, UniProt Q9NNX6); assay: Surface plasmon resonance (SPR) binding to immobilised DC-SIGN CRD; conditions: for KD (μM) / Kd: Kd=koff/kon
T1 construct: human DC-SIGN (Lys62-Ala404, from R§D Systems); purchased R&D Systems ('R§D Systems' [sic])
T1 sequence (Q9NNX6 62-404): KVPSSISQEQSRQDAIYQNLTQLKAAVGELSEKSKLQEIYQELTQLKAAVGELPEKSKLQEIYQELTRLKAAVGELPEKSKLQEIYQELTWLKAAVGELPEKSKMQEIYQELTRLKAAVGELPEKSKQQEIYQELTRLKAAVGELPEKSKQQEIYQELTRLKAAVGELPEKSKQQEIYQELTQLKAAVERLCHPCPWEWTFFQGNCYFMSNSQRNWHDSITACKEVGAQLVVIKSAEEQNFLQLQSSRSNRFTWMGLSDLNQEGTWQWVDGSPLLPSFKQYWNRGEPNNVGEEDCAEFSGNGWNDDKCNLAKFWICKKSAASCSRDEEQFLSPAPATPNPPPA
Procedure: SPR experiments were performed using a Biacore 3000. […] Biosensor assays were performed with HEPES-buffered saline (10 mM HEPES, 150 mM sodium chloride, pH 7.4) containing 0.005% surfactant P20 and 5 mM CaCl2 as a running buffer. All binding experiments were carried out at 25° C. with a constant flow rate of 20 μl/min. The different compounds dissolved in the running buffer (0.39 to 50 μM) were injected for 3 min, followed by a dissociation phase of 3 min. The sensor chip surface was regenerated after each experiment by injecting 10 μL of EDTA 0.5 M pH 8.0. A simple channel activated by EDC/NHS and deactivated with ethanolamine was used as control. The kinetic parameters were calculated using the BlAeval 4.1 software. Analysis was performed using the simple Langmuir binding model with separate ka/kd (kon/koff). The specific binding profiles were obtained after subtracting the response signal from the control channel and from blank-buffer injection. The fitting to each model was judged by the chi square value and randomness of residue distribution compared to the theoretical model (Langmuir binding 1:1).
The binding affinity of mannoside derivatives for the carbohydrate recognition domain (CRD) of DC-SIGN was assessed by surface plasmon resonance (SPR).
A CM5 sensor chip was functionalized with the DC-SIGN CRD, and increasing concentrations of the various compounds, mannan as a positive control and octaethyleneglycol (OEG) as a negative control, were injected over the chip surface. The association (kon) and dissociation (koff) rate constants and the resulting dissociation equilibrium constant (Kd=koff/kon) for each assessed compound were determined (see Table 1 hereunder).

[1] = Critical micelle concentration (CMC), pyrene fluorescent probe; assay type: physicochemical; conditions: in water
Procedure: DiManinsatC24 was prepared according a procedure similar to that used for the preparation of TriDiManC24 except that: • pentacosanoic acid was replaced by 10,12-pentacosadiynoic acid, and • before the coupling with 10,12-pentacosadiynoic acid, the benzyl groups of compound 33 were replaced by acetyl group so as to provide compound 108 (as illustrated in FIG. 3E). ^1H NMR δ(ppm) (MeOD, 400 MHz) 4.87 (s, 3H), 4.73 (s, 3H), 3.64-3.50 (m, 14H), 3.46-3.20 (m, 76H), 2.97-2.93 (m, 6H), 2.33 (t, 6H, J=6.8 Hz), 2.09-1.96 (m, 6H), 1.08-1.05 (m, 32H), 0.66 (t, 3H, J=6.8 Hz). ^13C NMR δ (ppm) (MeOD, 100 MHz) 173.7, 168.8, 104.2, 101.2, 80.6, 80.4, 75.1, 74.7, 72.5, 72.2, 72.1, 71.9, 71.8, 71.7, 71.6, 71.4, 69.4, 69.1, 68.9, 68.7, 68.6, 68.0, 63.2, 63.1, 42.2, 37.0, 34.8, 33.7, 33.1, 30.8, 30.7, 30.6, 30.5, 30.4, 30.2, 29.5, 28.1, 27.0, 26.0, 23.7, 19.7, 14.4. […] The hydrodynamic diameters of micelles of glycolipids were measured in water using a Zetasizer Nano ZS system (Malvern Instruments). The CMCs were measured using pyrene as an extrinsic fluorescent probe and were carried out as described (Perino et al., 2011). […] Fluorescent emission of pyrene was measured at 25° C. using a Fluorolog spectrofluorometer (Jobin Yvon, Horiba). The intensities of fluorescence emission were determined at 374 nm (I374) and at 383 nm (I383), with an excitation at a 339 nm wavelength. […]

HIV-1 R5 = HIV-1 R5 trans-infection of MAGI-CCR5 cells mediated by DCs; assay type: cell-based
Procedure: ManC1, […] (comparative) and compounds of the invention (ManC24, ManC17, TriManC24, TriDiManC24, TriManinsatC24 and ManinsatC24) were serially diluted in water. Human DCs (1×10^5 in 200 μl ) were pre-treated with different concentrations of compounds, or mannan (Sigma) or culture medium alone, in RPMI 1640 medium containing 10% FBS for 45 min at 37° C., prior infection with HIV-1 (100 ng of p24Gag) for 3 h. Excess free virus and molecules were removed by three washes. DCs were then cocultured with MAGI -CCR5 cells (1×10^5) at 37° C. plated in a 48-well plate. After two days, viral infection of MAGI-CCR5 cells was quantitated following beta-galactosidase assays and enumerating blue cells by light microscopy.
The IC50 were determined by serial dilution of each compound. The trans-infection assays were repeated a minimum of three times, and the IC50 determined using KaleidaGraph.
To investigate the ability of the compounds of the invention to inhibit HIV-1 trans infection, we chose to infect human DCs in order to best mimic in vivo conditions. Human DCs were exposed to different compounds (namely, Mannan (control), ManC1 (comparative), ManC11 (comparative), ManC17, ManC24, TriManC24, TriDiManC24, ManinsatC24 and TriManinsatC24) for 45 min at 37° C., before inoculation with HIV-1 (strains R5 and X4) for 3 hours. After extensive washings to remove unbound virions and mannosides, DCs were then co-cultured with MAGI-CCR5 cells. This procedure allows precise quantification of HIV-1 replication in reporter MAGI-CCR5 cells by detection of beta-galactosidase activity. These cells express an integrated copy of the HIV long terminal repeat (LTR) fused to the beta-galactosidase reporter gene, and express the CD4 receptor and the CCR5 and CXCR4 co-receptors, required for entry of HIV-1 R5 and X4 respectively. Upon viral entry leading to viral Tat expression and activation of the LTR, these cells permit quantification of HIV trans-infection after two days.

Dengue virus 2 (DV2) = assay: Dengue virus (DV2) cis-infection of human DCs; assay type: cell-based; conditions: for percentage of infected DCs: 48 hours
Procedure: Compounds of the invention (TriManC24, TriManinsatC24) were serially diluted in water. Human DCs (2.5×10^5 in 200 μl) in 48-well plates were pre-treated with different concentrations of compounds or culture medium alone, in RPMI 1640 medium […] for 30 min at 37° C. They were exposed to DV-2 at a multiplicity of infection of 1.0, for 2 h at 37° C. Cells were washed and cultured in complete RPMI medium (condition 1) or in complete medium containing the tested compounds (TriManC24, TriMannsatC24) (condition 2). After 48 h, supernatants were titered and cells were subjected to intracellular detection of viral antigens. DCs were fixed with 4% (v/v) paraformaldehyde and permeabilized with 0.1% (v/v) Triton X-100 for 3 min at room temperature. After washing, they were labeled with mouse anti-DV type 2 monoclonal antibody (3H5.1, Millipore) and stained with APC -conjugated rat anti-mouse IgG1. Fluorescence intensity of the cells was analyzed by flow cytometry (FACSCalibur, Becton Dickinson), using the Cell Quest Pro software.
There are four different dengue serotypes (1-4), and we have used DV type 2 (DV2) to further investigate the ability of the compounds of the invention (TriManC24 and TriManinsatC24) to inhibit the infection of human DCs. These cells were pre-treated with different concentrations of compounds or culture medium alone, for 30 min at 37° C. They were then exposed to DV2 for 2 hours at 37° C. Cells were washed to remove excess virions and compounds, and further cultured either in the absence (condition 1) or in the presence (condition 2) of the tested compounds. After 48 hours, cells were subjected to intracellular detection of viral antigens, and supernatants were titrated (not shown). […] FIG. 3A and FIG. 3B show the percentage of infected DCs when incubated with distinct concentrations of TriManinsatC24 in condition 1 and in condition 2, respectively. The histograms clearly show the protecting effects of TriManinsatC24, in particular in condition 2 wherein TriManinsatC24 at 10, 50 and 100 μM enabled the percentage of infected DCs to be reduced down to 40%, 20% and 2% respectively.

HIV-1 (R5 strain) = assay: HIV-1 cis-infection and replication in DCs (p24Gag ELISA); assay type: cell-based; conditions: 10 and 100 μM, p24Gag in supernatant
Procedure: Human monocyte-derived dendritic cells (2×10^5; 300 μL) in RPMI 1640 medium containing 10% FBS were pre-treated with either anti-DC-SIGN antibodies (clone AZND1, Beckman-Coulter; 10 μg/mL) or compounds TriManC24 and TriManC24insat (10 and 100 μM) for 30 min at 37° C., before inoculation with HIV-1 (R5 strain; 100 ng of p24Gag). After 3 h, cells were pelleted and extensively washed to remove excess virus and compounds. On day 2, 4 and 7 after infection, cells were pelleted, an aliquot of the supernatant was removed and kept at −20° C., and half of the supernatant was replaced with fresh medium. Viral replication was monitored by measuring p24Gag levels in the culture supernatant by an enzyme-linked immunosorbent assay (ELISA, Innogenetics). […] As shown in the case of Dengue virus, the compounds of the invention may also interfere with HIV cis-infection. […] Discussion

| KD (μM) (DC-SIGN CRD) | KD (μM) (DC-SIGN CRD; listed as TriDimanC24) | binding to DC-SIGN CRD (in words) (DC-SIGN CRD) | Compound | Kd (DC-SIGN CRD) [nM] | ability to form micelles (in words) [1] | residual level of trans-infection (HIV-1 R5) [%] | residual level of trans-infection (HIV-1 R5; HIV-1 R5, highest concentrations, relative to medium alone) [%] | inhibition of HIV-1 trans-infection (in words) (HIV-1 R5; HIV-1 R5 where stated) | inhibition of Dengue virus infection of DCs (in words) (Dengue virus 2 (DV2)) | percentage of infected DCs (Dengue virus 2 (DV2); condition 2, 10 μM) [%] | percentage of infected DCs (Dengue virus 2 (DV2); condition 2, 50 μM) [%] | percentage of infected DCs (Dengue virus 2 (DV2); condition 2, 100 μM) [%] | inhibition of HIV-1 cis-infection / replication in DCs (in words) (HIV-1 (R5 strain)) | inhibition of HIV-1 cis-infection / replication in DCs (in words) (HIV-1 (R5 strain); listed as TriManC24insat) |
| --- | --- | --- | --- | --- | --- | --- | --- | --- | --- | --- | --- | --- | --- | --- |
| low micromolar range | Sub-micromolar |  | CCCCCCCCCCCCCCCCCCCCCCCCC(=O)NC(COCCC(=O)NCCOCCOCCOCCOC1OC(CO)C(O)C(O)C1OC1OC(CO)C(O)C(O)C1O)(COCCC(=O)NCCOCCOCCOCCOC1OC(CO)C(O)C(O)C1OC1OC(CO)C(O)C(O)C1O)COCCC(=O)NCCOCCOCCOCCOC1OC(CO)C(O)C(O)C1OC1OC(CO)C(O)C(O)C1O (stereo not drawn) [TriDiManC24] | 3250 | unable to form micelles; also recorded: failed to form micelles | 40 |  |  |  |  |  |  |  |  |
|  |  |  | CCCCCCCCCCCCC#CC#CCCCCCCCCC(=O)NC(COCCC(=O)NCCOCCOCCOCCOC1OC(CO)C(O)C(O)C1O)(COCCC(=O)NCCOCCOCCOCCOC1OC(CO)C(O)C(O)C1O)COCCC(=O)NCCOCCOCCOCCOC1OC(CO)C(O)C(O)C1O (stereo not drawn) [TriManinsatC24] | 470 |  |  | 2 | almost fully blocked HIV trans-infection at the highest concentrations | able to inhibit the direct infection of DCs by Dengue virus | 40 | 20 | 2 | inhibit | decreases the amount of HIV R5 replication |
|  |  | bound efficiently | mannan [reference compound] |  |  |  |  |  |  |  |  |  |  |  |
